The results in this text go back to article PMC9311798, “A Novel Class of Potent Anti-Tyrosinase Compounds with Antioxidant Activity, 2-(Substituted phenyl)-5-(trifluoromethyl)benzo[d]thiazoles: In Vitro and In Silico Insights” (Antioxidants, 2022).

The target in assay [1] is T1, cellular tyrosinase in B16F10 cells (Mus musculus, UniProt P11344).
T1 construct: endogenous in cells; host or cells: B16F10 murine melanoma cells, stimulated with alpha-MSH and IBMX
T1 sequence (P11344 19-533): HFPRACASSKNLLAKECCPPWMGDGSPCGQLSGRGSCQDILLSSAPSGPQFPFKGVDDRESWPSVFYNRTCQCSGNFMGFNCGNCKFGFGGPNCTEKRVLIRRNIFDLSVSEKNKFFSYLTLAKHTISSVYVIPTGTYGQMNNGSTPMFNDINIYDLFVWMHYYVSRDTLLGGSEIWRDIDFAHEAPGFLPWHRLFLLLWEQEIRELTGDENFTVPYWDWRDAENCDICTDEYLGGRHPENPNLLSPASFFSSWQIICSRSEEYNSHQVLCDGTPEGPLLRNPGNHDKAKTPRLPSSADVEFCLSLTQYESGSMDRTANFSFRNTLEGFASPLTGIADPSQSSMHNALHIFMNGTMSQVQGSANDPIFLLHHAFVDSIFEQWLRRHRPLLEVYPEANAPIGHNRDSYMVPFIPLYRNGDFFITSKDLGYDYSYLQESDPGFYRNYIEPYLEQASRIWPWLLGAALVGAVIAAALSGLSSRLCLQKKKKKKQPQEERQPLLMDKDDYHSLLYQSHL
Kind of assay: Cellular tyrosinase activity (L-DOPA oxidation) in α-MSH/IBMX-stimulated cells. Format: cell-based, murine. On the procedure: Cellular tyrosinase activity was assessed by measuring the oxidation rate of L-DOPA as previously described, with minor modifications. In brief, B16F10 cells were seeded in a 6-well plate at 1 × 10^5 cells/well, and allowed to adhere to well bottoms for 24 h, as described in Section 2.3.5. […]. Cells were then rinsed twice with PBS, exposed to 100 µL of lysis buffer solution (90 µL of 50 mM phosphate buffer (pH 6.5), 5 µL of 2 mM PMSF, and 5 µL of 20% Triton X-100), and lysed at −80 °C for 30 min. After defrosting, cell lysates were transferred to microcentrifuge tubes and centrifuged at 12,000 rpm for 30 min at 4°C, and supernatants (80 µL) were mixed with 20 µL of L-DOPA (2 mg/mL) in a 96-well plate, and incubated for 10 min at 37 °C. Absorbances were measured at 475 nm using a microplate reader (VersaMax^TM, Molecular Devices, Sunnyvale, CA, USA).

Assay [2] deals with tyrosinase glycosylation in B16F10 cells. Put plainly: Western blot of glycosylated and non-glycosylated tyrosinase. It counts as cell-based, murine. Conditions: 2, 5, 10, 20 µM, 48 h; cytosolic fraction. The procedure:
Five different concentrations of 1b (0, 2, 5, 10, and 20 µM) were exposed to B16F10 cells for 48 h, and the cells were washed with cold PBS two times, harvested, lysed, and centrifuged at 4 °C (12,000 rpm for 10 min). Cell pellets were suspended in 10 mM Tris (pH 8.0) containing 1.5 mM MgCl2, 1 mM DTT, 0.1% NP-40, and protease inhibitors (GenDEPOT), incubated on ice for 15 min, and centrifuged at 12,000× g for 15 min at 4 °C. Supernatants (cytosolic fractions) and pellets were resuspended in 10 mM Tris (pH 8.0) containing 50 mM KCl, 100 mM NaCl, and protease inhibitor, incubated on ice for 30 min, and centrifuged at 12,000× g for 15 min at 4 °C. The resultant supernatants were nuclear fractions. The protein concentrations were determined by a Bicinchoninic Acid (BCA)™ Assay Kit (Pierce, Rockford, IL, USA). The lysed protein samples were mixed in loading buffer (0.2% bromophenol blue, 12.5 mM Tris-HCl, pH 6.8, 10% 2-mercaptoethanol, and 4% SDS) at a volume ratio of 1:4, and boiled for 10 min. […] Quantification of Western blot data were analyzed by CS Analyzer 3.2 (Densitograph) image software (http://www.attokorea.co.kr, admitted on 21 May 2022).

For assay [3], the system named is B16F10 murine melanoma cells. Kind of assay: Intracellular melanin content in α-MSH/IBMX-stimulated cells. It counts as cell-based. The procedure: The cultured cells were rinsed with PBS twice and pellets were dissolved in 200 µL of 1N-NaOH solution containing 10% DMSO for 1 h at 60 °C. Cell lysates were then transferred to a 96-well plate, and the melanin absorbances were measured in aqueous DMSO at 405 nm using a microplate reader (VersaMax^TM, Molecular Devices, Sunnyvale, CA, USA).

Where [4] appears, read: 10 µM, compared with kojic acid 20 µM.

For `Oc1ccc(-c2nc3cc(C(F)(F)F)ccc3s2)c(O)c1` [Compound 1b, 4-(5-(Trifluoromethyl)benzo[d]thiazol-2-yl)benzene-1,3-diol], the cellular tyrosinase activity entry is “reduced tyrosinase activity to that achieved by 20 µM kojic acid” in assay [1] (setting [4]) and “reduced tyrosinase activity to the untreated control level” in assay [1] (20 µM). Besides, the “effect on cellular tyrosinase activity” value in assay [1] (5, 10, 20 µM, IBMX + α-MSH, 48 h) is “significantly and concentration-dependently suppressed”. In assay [2], the “ratio of glycosylated tyrosinase to total tyrosinase” value is listed as “significantly reduced”. Moreover, the “inhibition of α-MSH/IBMX-induced intracellular melanin increase” value in assay [3] (setting [4]) was “more potently inhibited α-MSH/IBMX-induced increases in melanin than kojic acid at 20 µM”. Besides, in assay [3] (20 µM, α-MSH/IBMX co-treated cells), the “intracellular melanin content, lower than untreated control group” value turned out to be 20%. The “effect on intracellular melanin content” value in assay [3] (5, 10, 20 µM, α-MSH + IBMX, 48 h) is “significantly and concentration-dependently reduced intracellular melanin increases”.
